# From patent publication US11814391B2, “Macrocyclic compounds for the treatment of medical disorders” (Achillion Pharmaceuticals, Inc., priority 2018, dated 2023)
# Where two headings read alike, the source gives them in different places.
# Molecular target: Human Factor D (Homo sapiens (Human), UniProt P00746)
# Assay: Human Factor D assay
# Assay type: biochemical
# Experimental: The assay of Example 3 was used to determine the IC50's of the compounds. Other standard factor D inhibition assays are also available.
# Human Factor D (purified from human serum, Complement Technology, Inc.) at 80 nM final concentration is incubated with test compound at various concentrations for 5 min at room temperature in 50 mM Tris, 1M NaCl, pH 7.5. A synthetic substrate Z-L-Lys-SBzI and DTNB (Ellman's reagent) are added to final concentrations of 100 μM each. Absorbance at 405 nm (A405) is recorded at 30 second intervals for 30 min using a microplate spectrophotometer. IC50 values are calculated by nonlinear regression of complement Factor D reaction rates as a function of test compound concentration.
# [1] = Human Factor D 80 nM, substrate Z-L-Lys-SBzl, A405, read-out: IC50 (Stars)
# Chain of Human Factor D (P00746 26-253): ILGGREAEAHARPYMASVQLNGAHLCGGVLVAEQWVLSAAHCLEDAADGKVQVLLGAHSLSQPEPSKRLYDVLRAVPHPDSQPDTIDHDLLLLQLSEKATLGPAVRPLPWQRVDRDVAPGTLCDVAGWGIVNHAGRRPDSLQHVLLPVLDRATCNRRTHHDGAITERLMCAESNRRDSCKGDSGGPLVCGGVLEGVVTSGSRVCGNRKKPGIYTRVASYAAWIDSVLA
compound,measurement,setting,value
"CC(=O)c1nn2c3c(cc(CCC(C)C)cc13)CCCCCCC(=O)NC[C@@]13C[C@@H](C(=O)Nc4nc(C(F)(F)F)ccc4C)N(C(=O)C2)[C@@H]1C3 [Compound 20, (4^1R,4^3S,4^5R)-1^3-acetyl-1^5-isopentyl-N-(3-methyl-6-(trifluoromethyl)pyridin-2-yl)-3,7-dioxo-1^1H-4^2,6-diaza-1(1,7)-indazola-4(2,5)-bicyclo[3.1.0]hexanacyclotridecaphane-4^3-carboxamide]",IC50,[1],< 1000 nM
"CC(=O)c1nn2c3c(cc(C(C)C)cc13)CCCCCCC(=O)NC[C@@]13C[C@@H](C(=O)Nc4nc(C(F)(F)F)ccc4C)N(C(=O)C2)[C@@H]1C3 [Compound 21, (4^1R,4^3S,4^5R)-1^3-Acetyl-1^5-isopropyl-N-(3-methyl-6-(trifluoromethyl)pyridin-2-yl)-3,7-dioxo-1^1H-4^2,6-diaza-1(1,7)-indazola-4(2,5)-bicyclo[3.1.0]hexanacyclotridecaphane-4^3-carboxamide]",IC50,[1],< 1000 nM
"CC(=O)c1nn2c3c(cc(-c4cnc5cc(C)nn5c4)cc13)CCCCC[C@@H](C)C(=O)NC[C@@]13C[C@@H](C(=O)Nc4nc(C(F)(F)F)ccc4C)N(C(=O)C2)[C@@H]1C3 [Compound 22, (4^1R,4^3S,4^5R,8R)-1^3-acetyl-8-methyl-N-(3-methyl-6-(trifluoromethyl)pyridin-2-yl)-15-(2-methylpyrazolo[1,5-a]pyrimidin-6-yl)-3,7-dioxo-1^1H-4^2,6-diaza-1(1,7)-indazola-4(2,5)-bicyclo[3.1.0]hexanacyclotridecaphane-4^3-carboxamide]",IC50,[1],< 1000 nM
"CC(=O)c1nn2c3c(cc(-c4cnc(C)cn4)cc13)CCCCC[C@@H](C)C(=O)NC[C@@]13C[C@@H](C(=O)Nc4nc(C(F)(F)F)ccc4C)N(C(=O)C2)[C@@H]1C3 [Compound 23, (4^1R,4^3S,4^5R,8R)-1^3-acetyl-8-methyl-N-(3-methyl-6-(trifluoromethyl)pyridin-2-yl)-15-(5-methylpyrazin-2-yl)-3,7-dioxo-1^1H-4^2,6-diaza-1(1,7)-indazola-4(2,5)-bicyclo[3.1.0]hexanacyclotridecaphane-4^3-carboxamide]",IC50,[1],< 1000 nM
"CC(=O)c1nn2c3c(cc(NCC(C)C)cc13)CCCCCCC(=O)NC[C@@]13C[C@@H](C(=O)Nc4nc(C(F)(F)F)ccc4C)N(C(=O)C2)[C@@H]1C3 [Compound 24, (4^1R,4^3S,4^5R)-1^3-acetyl-15-(isobutylamino)-N-(3-methyl-6-(trifluoromethyl)pyridin-2-yl)-3,7-dioxo-1^1H-4^2,6-diaza-1(1,7)-indazola-4(2,5)-bicyclo[3.1.0]hexanacyclotridecaphane-4^3-carboxamide]",IC50,[1],< 1000 nM
"CC(=O)c1nn2c3c(cc(NC(C)C)cc13)CCCCCCC(=O)NC[C@@]13C[C@@H](C(=O)Nc4nc(C(F)(F)F)ccc4C)N(C(=O)C2)[C@@H]1C3 [Compound 25, (4^1R,4^3S,4^5R)-1^3-acetyl-1^5-(isopropylamino)-N-(3-methyl-6-(trifluoromethyl)pyridin-2-yl)-3,7-dioxo-1^1H-4^2,6-diaza-1(1,7)-indazola-4(2,5)-bicyclo[3.1.0]hexanacyclotridecaphane-4^3-carboxamide]",IC50,[1],< 1000 nM
"CC(=O)c1nn2c3c(cc(-c4cnc(C)nc4)cc13)CCCCC(C)(C)CC(=O)NC[C@@]13C[C@@H](C(=O)Nc4nc(C(F)(F)F)ccc4C)N(C(=O)C2)[C@@H]1C3 [Compound 26, (4^1R,4^3S,4^5R)-1^3-acetyl-9,9-dimethyl-N-(3-methyl-6-(trifluoromethyl)pyridin-2-yl)-15-(2-methylpyrimidin-5-yl)-3,7-dioxo-1^1H-4^2,6-diaza-1(1,7)-indazola-4(2,5)-bicyclo[3.1.0]hexanacyclotridecaphane-4^3-carboxamide]",IC50,[1],< 1000 nM
"CNc1cc2c3c(c1)c(C(C)=O)nn3CC(=O)N1[C@H](C(=O)Nc3nc(C(F)(F)F)ccc3C)C[C@@]3(CNC(=O)CCCCCC2)C[C@@H]13 [Compound 27, (4^1R,4^3S,4^5R)-1^3-acetyl-N-(3-methyl-6-(trifluoromethyl)pyridin-2-yl)-1^5-(methylamino)-3,7-dioxo-1^1H-4^2,6-diaza-1(1,7)-indazola-4(2,5)-bicyclo[3.1.0]hexanacyclotridecaphane-4^3-carboxamide]",IC50,[1],< 1000 nM
"CC(=O)c1nn2c3c(cc(CC(C)C)cc13)CCCCCCC(=O)NC[C@@]13C[C@@H](C(=O)Nc4nc(C(F)(F)F)ccc4C)N(C(=O)C2)[C@@H]1C3 [Compound 28, (4^1R,4^3S,4^5R)-1^3-acetyl-1^5-isobutyl-N-(3-methyl-6-(trifluoromethyl)pyridin-2-yl)-3,7-dioxo-1^1H-4^2,6-diaza-1(1,7)-indazola-4(2,5)-bicyclo[3.1.0]hexanacyclotridecaphane-4^3-carboxamide]",IC50,[1],< 1000 nM
"CC(=O)c1nn2c3c(cc(-c4cnc(C)nc4)cc13)CCCCCCC(=O)NC[C@@]13C[C@@H](C(=O)NC(C)[C@H]4CC4(Cl)Cl)N(C(=O)C2)[C@@H]1C3 (stereo partly drawn) [Compound 29, (4^1R,4^3S,4^5R)-1^3-acetyl-N-((R)-1-((R)-2,2-dichlorocyclopropyl)ethyl)-1^5-(2-methylpyrimidin-5-yl)-3,7-dioxo-1^1H-4^2,6-diaza-1(1,7)-indazola-4(2,5)-bicyclo[3.1.0]hexanacyclotridecaphane-4^3-carboxamide]",IC50,[1],< 1000 nM
"CC(=O)c1nn2c3c(cc(-c4cnc(C)nc4)cc13)CCCCCCC(=O)NC[C@@]13C[C@@H](C(=O)N[C@@H](C)[C@H]4CC4(Cl)Cl)N(C(=O)C2)[C@@H]1C3 [Compound 30, (4^1R,4^3S,4^5R)-1^3-acetyl-N-((S)-1-((R)-2,2-dichlorocyclopropyl)ethyl)-1^5-(2-methylpyrimidin-5-yl)-3,7-dioxo-1^1H-4^2,6-diaza-1(1,7)-indazola-4(2,5)-bicyclo[3.1.0]hexanacyclotridecaphane-4^3-carboxamide]",IC50,[1],< 1000 nM
"CC(=O)c1nn2c3c(cc(-c4cnc(C)nc4)cc13)CCCC[C@H](C)CC(=O)NC[C@@]13C[C@@H](C(=O)Nc4nc(C(F)(F)F)ccc4C)N(C(=O)C2)[C@@H]1C3 [Compound 31, (4^1R,4^3S,4^5R,9S)-1^3-acetyl-9-methyl-N-(3-methyl-6-(trifluoromethyl)pyridin-2-yl)-1^5-(2-methylpyrimidin-5-yl)-3,7-dioxo-1^1H-4^2,6-diaza-1(1,7)-indazola-4(2,5)-bicyclo[3.1.0]hexanacyclotridecaphane-4^3-carboxamide]",IC50,[1],< 1000 nM
"CC(=O)c1nn2c3c(cc(-c4cnc(C)nc4)cc13)CCCCCCCNC[C@@]13C[C@@H](C(=O)Nc4nc(C(F)(F)F)ccc4C)N(C(=O)C2)[C@@H]1C3 [Compound 32, (4^1R,4^3S,4^5R)-1^3-acetyl-N-(3-methyl-6-(trifluoromethyl)pyridin-2-yl)-1^5-(2-methylpyrimidin-5-yl)-3-oxo-1^1H-4^2,6-diaza-1(1,7)-indazola-4(2,5)-bicyclo[3.1.0]hexanacyclotridecaphane-4^3-carboxamide]",IC50,[1],< 1000 nM
"CC(=O)c1nn2c3c(cc(-c4cnc(C)nc4)cc13)CNC(=O)CCCCOC[C@@]13C[C@@H](C(=O)Nc4nc(C(F)(F)F)ccc4C)N(C(=O)C2)[C@@H]1C3 [Compound 33, (4^1R,4^3S,4^5S)-1^3-acetyl-N-(3-methyl-6-(trifluoromethyl)pyridin-2-yl)-1^5-(2-methylpyrimidin-5-yl)-3,11-dioxo-1^1H-6-oxa-4^2,12-diaza-1(1,7)-indazola-4(2,5)-bicyclo[3.1.0]hexanacyclotridecaphane-4^3-carboxamide]",IC50,[1],< 1000 nM
"CC(=O)c1nn2c3c(cc(-c4cnc(C)nc4)cc13)CCCC[C@@H](C)CC(=O)NC[C@@]13C[C@@H](C(=O)Nc4nc(C(F)(F)F)ccc4C)N(C(=O)C2)[C@@H]1C3 [Compound 34, (4^1R,4^3S,4^5R,9R)-1^3-acetyl-9-methyl-N-(3-methyl-6-(trifluoromethyl)pyridin-2-yl)-1^5-(2-methylpyrimidin-5-yl)-3,7-dioxo-1^1H-4^2,6-diaza-1(1,7)-indazola-4(2,5)-bicyclo[3.1.0]hexanacyclotridecaphane-4^3-carboxamide]",IC50,[1],< 1000 nM
"CC(=O)c1nn2c3c(cc(-c4cnc(C)nc4)cc13)CCCCCCCCCCN([C@@H](C)C(=O)Nc1nc(Br)ccc1C)C(=O)C2 [Compound 35, (S)-2-(2-acetyl-4-(2-methylpyrimidin-5-yl)-17-oxo-8,9,10,11,12,13,14,15,17,18-decahydro-6H-[1,4]diazacyclohexadecino[15,16,1-hi]indazol-16(7H)-yl)-N-(6-bromo-3-methylpyridin-2-yl)propanamide]",IC50,,1000 to 10000 nM
"CC(=O)c1nn2c3c(cc(-c4cnc(C)nc4)cc13)CNCCCCCOC[C@@]13C[C@@H](C(=O)Nc4nc(C(F)(F)F)ccc4C)N(C(=O)C2)[C@@H]1C3 [Compound 36, (4^1R,4^3S,4^5S)-1^3-acetyl-N-(3-methyl-6-(trifluoromethyl)pyridin-2-yl)-1^5-(2-methylpyrimidin-5-yl)-3-oxo-1^1H-6-oxa-4^2,12-diaza-1(1,7)-indazola-4(2,5)-bicyclo[3.1.0]hexanacyclotridecaphane-4^3-carboxamide]",IC50,[1],< 1000 nM
"CC(=O)c1nn2c3c(cc(-c4cnc(C)nc4)cc13)CNCC/C=C/COC[C@@]13C[C@@H](C(=O)Nc4nc(C(F)(F)F)ccc4C)N(C(=O)C2)[C@@H]1C3 [Compound 37, (4^1R,4^3S,4^5S,E)-1^3-acetyl-N-(3-methyl-6-(trifluoromethyl)pyridin-2-yl)-1^5-(2-methylpyrimidin-5-yl)-3-oxo-1^1H-6-oxa-4^2,12-diaza-1(1,7)-indazola-4(2,5)-bicyclo[3.1.0]hexanacyclotridecaphan-8-ene-4^3-carboxamide]",IC50,[1],< 1000 nM
